Test results taken from ChEMBL document CHEMBL1134837, “A conformational and structure-activity relationship study of cytotoxic 3,5-bis(arylidene)-4-piperidones and related N-acryloyl analogues” (J Med Chem, 2001).
“And” between values parts separate entries of the source, which are not always exact repeats. Equal values may be shown once.

How the values were obtained:
[1] = Cytotoxicity against human Molt 4/C8 cells.; type: functional, cell-based; settings: Molt4/C8
L1210 [2] = assay: Cytotoxicity against murine L1210 cells.; type: functional, cell-based; settings: Mus musculus
[3] = Average potency of all four cell lines (P388 cell line, L1210 cell line, Molt 4/C8 cell line, CEM T-lymphocytes); type: functional; parameters: unit not given here
CCRF-CEM = assay: Cytotoxicity against CEM T-lymphocytes.; type: functional, cell-based; settings: Homo sapiens
P388 = assay: Cytotoxicity against murine P388 cells.; type: functional, cell-based; settings: Mus musculus
Jurkat [4] = assay: (§1) Cytotoxicity against human Jurkat T cells.; type: functional
Jurkat [5] = assay: Inhibitory effect on the biosyntheses of RNA using human Jurkat T cells.; type: functional
Jurkat [6] = assay: as §1; type: functional, cell-based
[7] = The apoptotic index [(number of human jurkat cells with apoptotic nuclei/number of cells counted) 100]; type: functional
L1210 [8] = assay: Inhibitory effect on the biosyntheses of DNA in murine L1210 cells.; type: functional, cell-based; settings: Mus musculus
L1210 [9] = assay: Inhibitory effect on the biosyntheses of protein in murine L1210 cells.; type: functional, cell-based; settings: Mus musculus
L1210 [10] = assay: Inhibitory effect on the biosyntheses of RNA in murine L1210 cells.; type: functional, cell-based; settings: Mus musculus
Jurkat [11] = assay: Inhibitory effect on the biosyntheses of protein using human Jurkat T cells.; type: functional

Compound | IC50 [1] [nM] | IC50 (L1210 [2]) [nM] | AP [3] | IC50 (CCRF-CEM) [nM] | IC50 (P388) [nM] | IC80 (Jurkat [4]) [nM] | Inhibition (Jurkat [5]) | IC50 (Jurkat [6]) [nM] | Apoptotic index [7] | IC50 (L1210 [8]) [nM] | IC50 (L1210 [9]) [nM] | IC50 (L1210 [10]) [nM] | Inhibition (Jurkat [11]) [%]
C=CC(=O)N1C/C(=C\c2ccc(OC)cc2)C(=O)/C(=C/c2ccc(OC)cc2)C1 | 2270 | 11800 | 4.36 | 2670 | 680 | – | – | – | – | – | – | – | –
O=C1/C(=C/c2ccccc2)CNC/C1=C\c1ccccc1 | – | – | 3.03 | – | 770 | – | – | – | – | – | – | – | –
O=C1/C(=C/c2ccc(Cl)c(Cl)c2)CNC/C1=C\c1ccc(Cl)c(Cl)c1 | 40200 | 129000 | 47.8 | 20800 | 1010 | 4830 | 26.4% and 31.1% | 3090 | 48.3 | – | – | – | –
O=C1/C(=C/c2ccc([N+](=O)[O-])cc2)CNC/C1=C\c1ccc([N+](=O)[O-])cc1 | 8280 | 32900 | 11.5 | 4470 | 200 | – | – | – | – | 228000 | 214000 | 276000 | –
C=CC(=O)N1C/C(=C\c2ccc(F)cc2)C(=O)/C(=C/c2ccc(F)cc2)C1 | 410 | 3890 | 1.34 | 800 | 270 | – | – | – | – | – | – | – | –
O=C1/C(=C/c2ccc(F)cc2)CNC/C1=C\c1ccc(F)cc1 | – | – | 11 | – | 600 | – | – | – | – | – | – | – | –
O=C1/C(=C/c2ccc(Cl)cc2)CNC/C1=C\c1ccc(Cl)cc1 | – | – | 16.1 | – | 740 | – | – | – | – | – | – | – | –
COc1ccc(/C=C2\CNC/C(=C\c3ccc(OC)cc3)C2=O)cc1 | – | – | 174 | – | 1540 | – | – | – | – | – | – | – | –
C=CC(=O)N1C/C(=C\c2ccc(Cl)cc2)C(=O)/C(=C/c2ccc(Cl)cc2)C1 | 440 | 1960 | 0.76 | 490 | 150 | – | – | – | – | – | – | – | –
C=CC(=O)N1C/C(=C\c2ccc(N3CC3)cc2)C(=O)/C(=C/c2ccc(N3CC3)cc2)C1 | 369000 | > 500000 | >353 | > 500000 | 43300 | – | – | – | – | – | – | – | –
C=CC(=O)N1C/C(=C\c2ccc([N+](=O)[O-])cc2)C(=O)/C(=C/c2ccc([N+](=O)[O-])cc2)C1 | 150 | 420 | 0.22 | 260 | 50 | – | – | – | – | 2770 | 3210 | 5730 | –
O=C1/C(=C/c2ccc(N3CC3)cc2)CNC/C1=C\c1ccc(N2CC2)cc1 | 226000 | 240000 | 157 | 162000 | 640 | – | – | – | – | > 500000 | 320000 | 336000 | –
C=CC(=O)N1C/C(=C\c2ccccc2)C(=O)/C(=C/c2ccccc2)C1 | 1420 | 8690 | 3.3 | 1480 | 500 | – | – | – | – | – | – | – | –
N[C@@H](Cc1ccc(N(CCCl)CCCl)cc1)C(=O)O | – | – | 2.02 | – | – | – | 85.1% | – | – | > 100000 | 94600 | > 100000 | 17.3
C=CC(=O)N1C/C(=C\c2ccc(Cl)c(Cl)c2)C(=O)/C(=C/c2ccc(Cl)c(Cl)c2)C1 | 1040 | 1520 | 0.92 | 1080 | 50 | 940 | 67.6% | 580 | 63.5 | – | – | – | 58.1
